Earlier results on 2 compounds are cited in patent US20060264381A1, “Methods of treating obsessive compulsive disorder” (priority 2005, published 2006).

Data set [1] relates to cultured cortical neurons. The note with it: cultures prepared from Fmr1 knockout (KO) mice lacking FMRP.
Data set [2] concerns Gp1 mGluR5 on cultured hippocampal neurons.
The test system of data set [3] is synaptosomes prepared from the cortex of Fmr1 KO mice.
Data set [4] deals with T1, mGluR5 (Mus musculus, UniProt Q3UVX5).
T1 construct: from tissue; host or cells: brain slices from Fmr1 knockout mouse (hippocampal area CA3 by context)
T1 sequence (Q3UVX5 19-1203): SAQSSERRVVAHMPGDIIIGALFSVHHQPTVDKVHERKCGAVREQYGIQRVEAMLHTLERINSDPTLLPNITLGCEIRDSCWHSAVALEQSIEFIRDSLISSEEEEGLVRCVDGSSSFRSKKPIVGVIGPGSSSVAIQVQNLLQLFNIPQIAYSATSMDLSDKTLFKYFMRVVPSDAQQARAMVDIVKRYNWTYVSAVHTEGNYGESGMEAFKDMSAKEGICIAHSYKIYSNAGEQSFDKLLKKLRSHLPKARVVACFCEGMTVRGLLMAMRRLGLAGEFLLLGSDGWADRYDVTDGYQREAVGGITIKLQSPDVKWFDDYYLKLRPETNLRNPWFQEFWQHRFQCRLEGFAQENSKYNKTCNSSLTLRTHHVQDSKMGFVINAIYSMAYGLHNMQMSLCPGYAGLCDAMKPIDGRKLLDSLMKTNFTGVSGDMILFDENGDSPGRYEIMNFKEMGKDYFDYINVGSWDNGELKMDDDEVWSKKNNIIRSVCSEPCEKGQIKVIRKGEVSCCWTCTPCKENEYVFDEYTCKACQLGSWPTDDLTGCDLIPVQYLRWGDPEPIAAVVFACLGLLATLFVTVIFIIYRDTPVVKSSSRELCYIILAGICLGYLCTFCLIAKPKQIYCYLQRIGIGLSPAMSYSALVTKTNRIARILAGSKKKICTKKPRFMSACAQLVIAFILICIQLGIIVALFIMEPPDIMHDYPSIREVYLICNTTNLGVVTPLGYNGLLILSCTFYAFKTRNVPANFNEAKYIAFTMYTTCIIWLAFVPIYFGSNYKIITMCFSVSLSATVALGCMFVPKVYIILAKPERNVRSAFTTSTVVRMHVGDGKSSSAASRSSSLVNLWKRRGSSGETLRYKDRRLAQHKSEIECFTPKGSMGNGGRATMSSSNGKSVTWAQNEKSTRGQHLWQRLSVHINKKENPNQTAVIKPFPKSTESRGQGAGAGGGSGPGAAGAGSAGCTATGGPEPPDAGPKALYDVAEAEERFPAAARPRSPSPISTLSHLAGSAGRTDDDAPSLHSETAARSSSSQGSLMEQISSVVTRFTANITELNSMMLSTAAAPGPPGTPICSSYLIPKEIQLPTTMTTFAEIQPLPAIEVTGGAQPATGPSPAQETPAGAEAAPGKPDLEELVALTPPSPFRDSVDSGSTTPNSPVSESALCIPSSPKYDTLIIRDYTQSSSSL
The note with it: slices from the Fmr1 KO mouse.

Data set [5] relates to Drosophila mGluR, DmGluRA. The note with it: flies lacking dfmr1 raised with food containing drug.

`N[C@@H](C(=O)O)c1cc(O)cc(O)c1` (racemic) [DHPG, (R,S)-3,5-dihydroxyphenylglycine]: in data set [1], the PSD-95 levels entry is given as “fails to increase PSD-95 levels”. Moreover, in data set [2] (cultured hippocampal neurons), the “delivery of FMRP to dendrites” value is recorded as “triggers the delivery of FMRP to dendrites” and the “loss of AMPA receptors from synapses” value is given as “stimulates the loss of AMPA receptors from synapses”. Besides, the “proportion of long, thin dendritic spines” value in data set [2] (prolonged treatment of hippocampal neurons) was “increased the proportion of long, thin dendritic spines”. The polyribosome assembly result in data set [3] was “fails to stimulate polyribosome assembly”.

On to `Cc1cccc(C#Cc2ccccc2)n1` [MPEP, 2-methyl-6-(phenylethynyl)-pyridine], for which the “ictal-like activity emerging spontaneously in slices” value in data set [4] is listed as “reversed”. For the same compound, in data set [5], the “rescue of phenotypes in mutant flies (altered courtship behavior, decreased memory in conditioned courtship assay, mushroom body structure)” value is listed as “rescued”.
